Source: patent US20220017566A1, “TERPINOID DERIVATIVES AND USES THEREOF” (SICHUAN HAISCO PHARMACEUTICAL CO., LTD., priority 2018, published 2022)
pEC50, pIC50: −log10 of the molar value. Like-named read-outs stand apart in the source and are kept apart here.

Tests used:
[1] = Metabolic stability in mouse liver microsomes; assay type: in vitro ADME, CD-1 mouse; settings: CD-1
Description: (§1) The metabolic stability of test compounds was examined in CD-1 mouse, Sprague Dawley rat, Beagle dog, cynomolgus monkey, and human liver microsomes. Test compound (final concentration 1 μM) was mixed with diluted liver microsomes from each of the 5 species and a small aliquot was taken at 0, 5, 10, 20, 30, and 60 minutes for LC/MS/MS analysis. Intrinsic clearance and half-life were calculated.

[2] = Metabolic stability in rat liver microsomes; assay type: in vitro ADME; settings: Sprague Dawley
Description: as §1

[3] = Metabolic stability in monkey liver microsomes; assay type: in vitro ADME, cynomolgus monkey
Description: as §1

[4] = Metabolic stability in dog liver microsomes; assay type: in vitro ADME; settings: Beagle
Description: as §1

[5] = Metabolic stability in human liver microsomes; assay type: in vitro ADME
Description: as §1

NQO1 = NQO1 activity assay in Raw264.7 cell lysates; assay type: cell-based; settings: Mus musculus; Raw264.7 cells, 48 hours treatment
Description: Raw264.7 cells were seeded in DMEM+10% FBS in 96-well plates at a density of 10,000 cells per well. 6 hours after plating, cells were treated with DMSO or test compounds (top dose 100 nM, 1:4 serial dilution, 8-point) for 48 hours. NQO1 activity was then detected in cell lysates using NQO1 activity assay kit (Abeam, Cat#ab184867). NQO1 activity was then plotted against compound concentration, and EC50 values were calculated using four-parameter algorithm in Graphpad Prism.

[6] = tested on: IFNγ-induced NO production in Raw 264.7 cells; experiment: Nitric oxide assay: suppression of IFNγ-induced NO production (Griess nitrite, adjusted to live cell numbers); assay type: cell-based; settings: Mus musculus, RAW264.7, 2 h pretreatment, IFNγ 10 ng/ml for 24 hours
Outline: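 Raw 264.7 cells in DMEM + 2% FBS were pretreated 2 h with compound (10-point, 1:4 dilution from 100 nM), then stimulated with 10 ng/ml mouse IFNγ for 24 h. Media nitrite was read by Griess and normalised to CellTiter-Glo viability. IC50 from four-parameter fit of % inhibition.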

[7] = Pharmacokinetic studies in Sprague Dawley rats (oral gavage and IV); assay type: in vivo; settings: rat, male SD rats, plasma; for AUC(0-t): read-out: AUC0-24 h; for bioavailability: oral 5 mg/kg vs IV 1 mg/kg, read-out: Bioavailibility F %
Description: The pharmacokinetics of test compounds was evaluated in male SD rats when administered via oral gavage and IV injection. For oral dosing, compound was formulated in 0.5% methylcellulose and administered at doses of 5 mg/kg (3 rats per dose level) and volume of 10 mL/kg. For IV dosing, compound was formulated in 5% DMSO/5% Solutol/90% saline and administered to 3 rats at a dose of 1 mg/kg and a volume of 5 mL/kg. The rats were fasted overnight before administration. Plasma samples were collected predose and at 0.5, 1, 3, 6, 9, 12, and 24 hours postdose. The samples were analyzed by LC/MS/MS and the concentration of test compound at each timepoint was determined by linear regression. Pharmacokinetic parameters were calculated from the plasma concentrations using Pheonix WinNonlin.

CYP1A2 = molecular target: T1, CYP1A2 (Homo sapiens, UniProt P05177); experiment: CYP450 enzyme inhibition in liver microsomes (cocktail probe incubation); assay type: in vitro ADME; settings: species not given, 0.05-50 μM tested
T1 construct: studied in liver microsomes of CD-1 mouse, Sprague Dawley rat, Beagle dog, cynomolgus monkey, and human; from tissue; host or cells: liver microsomes
T1 sequence (P05177 1-516): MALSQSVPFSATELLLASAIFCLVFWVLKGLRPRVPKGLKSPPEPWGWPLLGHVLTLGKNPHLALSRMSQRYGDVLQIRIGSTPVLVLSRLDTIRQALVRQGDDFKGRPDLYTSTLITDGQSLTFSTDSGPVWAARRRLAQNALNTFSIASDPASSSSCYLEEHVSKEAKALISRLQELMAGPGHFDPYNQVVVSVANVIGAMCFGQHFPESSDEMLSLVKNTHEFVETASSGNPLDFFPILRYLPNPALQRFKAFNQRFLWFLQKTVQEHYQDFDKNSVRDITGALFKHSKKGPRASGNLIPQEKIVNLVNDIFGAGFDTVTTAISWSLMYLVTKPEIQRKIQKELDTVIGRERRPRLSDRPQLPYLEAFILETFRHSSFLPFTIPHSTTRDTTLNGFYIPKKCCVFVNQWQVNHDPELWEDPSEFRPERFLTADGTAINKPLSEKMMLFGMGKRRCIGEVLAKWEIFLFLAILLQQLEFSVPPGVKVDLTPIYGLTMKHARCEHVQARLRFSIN
Outline: (§2)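 Liver microsomes (CD-1 mouse, SD rat, Beagle dog, cynomolgus monkey, human) incubated with a cocktail of CYP-specific probe substrates. Test compounds at seven concentrations (0.05, 0.15, 0.5, 1.5, 5, 15, 50 μM). Known inhibitors included as positive controls at a single concentration above their IC50.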

CYP2D6 = molecular target: T2, CYP2D6 (Homo sapiens, UniProt P10635); experiment: as above; assay type: in vitro ADME; settings: species not given, 0.05-50 μM tested
T2 construct: studied in liver microsomes of CD-1 mouse, Sprague Dawley rat, Beagle dog, cynomolgus monkey, and human; from tissue; host or cells: liver microsomes
T2 sequence (P10635 whole entry): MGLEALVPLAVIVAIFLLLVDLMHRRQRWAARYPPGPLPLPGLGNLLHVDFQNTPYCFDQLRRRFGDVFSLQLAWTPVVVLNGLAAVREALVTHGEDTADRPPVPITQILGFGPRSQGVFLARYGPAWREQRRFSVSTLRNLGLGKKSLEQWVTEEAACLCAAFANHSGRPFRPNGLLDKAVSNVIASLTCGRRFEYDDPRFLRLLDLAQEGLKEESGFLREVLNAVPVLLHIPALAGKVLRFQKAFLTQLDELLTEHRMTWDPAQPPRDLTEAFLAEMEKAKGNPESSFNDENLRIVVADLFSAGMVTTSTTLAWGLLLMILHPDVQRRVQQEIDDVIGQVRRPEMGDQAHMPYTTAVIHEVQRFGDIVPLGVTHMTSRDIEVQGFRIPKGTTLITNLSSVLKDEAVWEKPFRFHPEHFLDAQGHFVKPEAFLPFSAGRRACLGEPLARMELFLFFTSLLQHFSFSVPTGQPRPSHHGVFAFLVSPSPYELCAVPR
Outline: as §2

CYP2C19 = molecular target: T3, CYP2C19 (Homo sapiens, UniProt P33261); experiment: as above; assay type: in vitro ADME; settings: species not given, 0.05-50 μM tested
T3 construct: studied in liver microsomes of CD-1 mouse, Sprague Dawley rat, Beagle dog, cynomolgus monkey, and human; from tissue; host or cells: liver microsomes
T3 sequence (P33261 whole entry): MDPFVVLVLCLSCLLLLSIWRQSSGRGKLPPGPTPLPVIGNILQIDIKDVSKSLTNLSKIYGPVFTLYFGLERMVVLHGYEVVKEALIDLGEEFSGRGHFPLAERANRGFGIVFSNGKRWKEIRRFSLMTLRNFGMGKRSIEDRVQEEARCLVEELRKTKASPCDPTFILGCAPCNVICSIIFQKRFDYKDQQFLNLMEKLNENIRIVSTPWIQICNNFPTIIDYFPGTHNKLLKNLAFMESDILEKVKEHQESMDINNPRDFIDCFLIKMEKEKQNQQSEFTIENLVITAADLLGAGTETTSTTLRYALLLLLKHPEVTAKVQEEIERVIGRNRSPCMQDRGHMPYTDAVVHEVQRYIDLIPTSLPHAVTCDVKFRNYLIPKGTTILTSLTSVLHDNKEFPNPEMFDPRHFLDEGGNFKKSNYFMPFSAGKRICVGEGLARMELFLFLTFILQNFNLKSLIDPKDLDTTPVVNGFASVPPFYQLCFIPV
Outline: as §2

CYP3A4 = molecular target: T4, CYP3A4 (Homo sapiens, UniProt P08684); experiment: as above; assay type: in vitro ADME; settings: species not given, 0.05-50 μM tested
T4 construct: studied in liver microsomes of CD-1 mouse, Sprague Dawley rat, Beagle dog, cynomolgus monkey, and human; from tissue; host or cells: liver microsomes
T4 sequence (P08684 whole entry): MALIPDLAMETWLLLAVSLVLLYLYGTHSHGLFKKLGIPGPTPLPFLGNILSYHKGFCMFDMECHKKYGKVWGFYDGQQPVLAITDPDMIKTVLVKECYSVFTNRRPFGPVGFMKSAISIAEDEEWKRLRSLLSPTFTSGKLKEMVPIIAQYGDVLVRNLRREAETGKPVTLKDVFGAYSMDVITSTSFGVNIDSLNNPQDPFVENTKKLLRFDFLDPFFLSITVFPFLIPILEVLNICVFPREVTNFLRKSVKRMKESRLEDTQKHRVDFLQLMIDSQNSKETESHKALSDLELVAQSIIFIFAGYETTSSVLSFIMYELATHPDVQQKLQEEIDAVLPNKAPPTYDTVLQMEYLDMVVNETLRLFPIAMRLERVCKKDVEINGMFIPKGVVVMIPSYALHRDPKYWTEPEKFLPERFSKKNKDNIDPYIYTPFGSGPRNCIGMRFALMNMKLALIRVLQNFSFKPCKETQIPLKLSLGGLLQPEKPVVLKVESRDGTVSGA
Outline: as §2

CYP2C9 = molecular target: T5, CYP2C9 (Homo sapiens, UniProt P11712); experiment: as above; assay type: in vitro ADME; settings: species not given, 0.05-50 μM tested
T5 construct: studied in liver microsomes of CD-1 mouse, Sprague Dawley rat, Beagle dog, cynomolgus monkey, and human; from tissue; host or cells: liver microsomes
T5 sequence (P11712 whole entry): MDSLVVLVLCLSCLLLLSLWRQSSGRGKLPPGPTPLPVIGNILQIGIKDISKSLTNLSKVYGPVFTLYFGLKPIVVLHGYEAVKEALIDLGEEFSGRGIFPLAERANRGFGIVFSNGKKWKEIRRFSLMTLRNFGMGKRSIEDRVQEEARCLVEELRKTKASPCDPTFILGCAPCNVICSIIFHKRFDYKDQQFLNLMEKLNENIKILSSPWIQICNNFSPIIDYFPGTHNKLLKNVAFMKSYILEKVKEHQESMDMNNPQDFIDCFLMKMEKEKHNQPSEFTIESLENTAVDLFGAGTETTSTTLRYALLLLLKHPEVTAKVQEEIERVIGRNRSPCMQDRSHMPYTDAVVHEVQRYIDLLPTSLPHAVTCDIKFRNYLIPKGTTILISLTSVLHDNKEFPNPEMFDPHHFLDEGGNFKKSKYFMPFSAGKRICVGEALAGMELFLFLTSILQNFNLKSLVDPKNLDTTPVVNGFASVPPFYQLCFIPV
Outline: as §2

SMILES	CLint scaled at 1 μM [1] [mL/min/kg]	half-life at 1 μM [1] [min]	CLint scaled at 1 μM [2] [mL/min/kg]	half-life at 1 μM [2] [min]	CLint scaled at 1 μM [3] [mL/min/kg]	half-life at 1 μM [3] [min]	CLint scaled at 1 μM [4] [mL/min/kg]	half-life at 1 μM [4] [min]	CLint scaled at 1 μM [5] [mL/min/kg]	half-life at 1 μM [5] [min]	pEC50 (NQO1)	pIC50 [6]	C0 ([7]; IV (1 mg/kg)) [ng/mL]	clearance ([7]; IV (1 mg/kg)) [mL/min/kg]	half-life ([7]; IV (1 mg/kg)) [min]	AUC(0-t) ([7]; IV (1 mg/kg)) [ng·h/mL]	Cmax ([7]; Oral (5 mg/kg)) [ng/mL]	half-life ([7]; Oral (5 mg/kg)) [min]	AUC(0-t) ([7]; Oral (5 mg/kg)) [ng·h/mL]	bioavailability [7] [%]	other results
COC(=O)[C@]12CCC(C)(C)C[C@H]1[C@H]1C(=O)C=C3[C@@]4(C)C=C(C#N)C(=O)C(C)(C)[C@@H]4CC[C@@]3(C)[C@]1(C)CC2 [Control, reference compound]	180	30.6	832	3	949	2	78	25.6	95.4	13.1	> 8.00	> 8.00	365	56.8	378	291	7	204	26	1.8	pIC50 (CYP1A2): < 4.30; pIC50 (CYP2D6): < 4.30; pIC50 (CYP2C19): 5.28; pIC50 (CYP3A4): 5.59; pIC50 (CYP2C9): 5.77
CC(=NC#N)NC[C@]12CCC(C)(C)C[C@H]1[C@H]1C(=O)C=C3[C@@]4(C)C=C(C#N)C(=O)C(C)(C)[C@@H]4CC[C@@]3(C)[C@]1(C)CC2 [Example 4, N′-cyano-N-(((4aS,6aR,6bS,8aR,12aS,14aR,14bS)-11-cyano-2,2,6a,6b,9,9,12a-heptamethyl-10,14-dioxo-1,3,4,5,6,6a,6b,7,8,8a,9,10,12a,14,14a,14b-hexadecahydropicen-4a(2H)-yl)methyl)acetimidamide]	147	37.3	38.8	64.3	104	18.1	101	19.7	34.2	36.5	7.00 to 8.00	> 8.00	747	50.9	192	292	51	174	214	14.6	pIC50 (CYP1A2): < 4.30; pIC50 (CYP2D6): 5.66; pIC50 (CYP2C19): 5.35; pIC50 (CYP3A4): 5.48; pIC50 (CYP2C9): 5.80
CC1(C)C(=O)C(C#N)=C[C@]2(C)C3=CC(=O)[C@@H]4[C@@H]5C[C@@](C)(N6CC(O)C6)CC[C@]5(C)CC[C@@]4(C)[C@]3(C)CC[C@@H]12 [Example 26, (4aR,6aS,6bR,8aS,11S,12aS,14bS)-11-(3-hydroxyazetidin-1-yl)-4,4,6a,6b,8a,11,14b-heptamethyl-3,13-dioxo-3,4,4a,5,6,6a,6b,7,8,8a,9,10,11,12,12a,12b,13,14b-octadecahydropicene-2-carbonitrile]	402	13.7	161	15.5	752	2.5	77.3	25.8	184	6.8	> 8.00	> 8.00	1040	56.3	282	294	57	216	270	18.3	pIC50 (CYP1A2): < 4.30; pIC50 (CYP2D6): < 4.30; pIC50 (CYP2C19): < 4.30; pIC50 (CYP3A4): 4.84; pIC50 (CYP2C9): 4.56
